According to ChEMBL document CHEMBL5052827, “Ash1l inhibitors and methods of treatment therewith” (2020):
Calls of active or inactive are those of the source. The rule behind the calls is not given here.

Experiments:
[1] = molecular target: Histone-lysine N-methyltransferase ASH1L (Homo sapiens, UniProt Q9NR48); test: Inhibition of ASH1L SET-BAH construct (unknown origin) (2069 to 2833 residues) using SAM as substrate incubated for 1 hr and measured after 45 mins by Beckman scintillation counter method
[2] = system: MV4-11; test: Antitumor activity in human MV4-11-Luc cells xenografted female NSG mouse assessed as decrease in leukemia progression at 25 mg/kg, ip administered twice a day for 21 days; assay type: functional, organism-based; settings: time 21.0 day
[3] = system: KOPN-8; test: Antiproliferative activity against human KOPN-8 cells measured after 14 days by MTT assay; assay type: functional; settings: KOPN-8, 336 h, time 14 day
[4] = system: MV4-11; test: Antiproliferative activity against human MV4-11 cells measured after 14 days by MTT assay; assay type: functional; settings: MV4-11, 336 h, time 14 day
[5] = system: MOLM-13; test: Antiproliferative activity against human MOLM-13 cells measured after 14 days by MTT assay; assay type: functional; settings: MOLM-13, 336 h, time 14 day
[6] = system: SEM cells; test: Antiproliferative activity against human SEM cells measured after 14 days by MTT assay; assay type: functional; settings: 336 h, time 14 day
[7] = system: K562; test: Antiproliferative activity against human K562 cells measured after 14 days by MTT assay; assay type: functional; settings: K562, 336 h, time 14 day
[8] = Cytotoxicity against human CD34-positive cells; assay type: toxicity, cell-based, CD34-positive (myeloid/lymphoid) cell
[9] = system: MV4-11; test: Induction of human MV4-11 cell differentiation at 6 to 12 uM measured after 7 days; assay type: functional, cell-based; settings: dose 6-12 µM, time 7.0 day

Structure (SMILES) | IC50 [1] | also measured
NC(=S)c1cccc(-c2cn(C3CCOCC3)c3cc(CNc4nnc(N)[nH]4)ccc23)c1 | < 20 µM | –
CNC(=O)NCc1ccc2c(-c3cccc(C(N)=S)c3)cn(C3CCN(S(=O)(=O)C(F)(F)F)CC3)c2c1 | < 20 µM | –
COc1ccc(Cn2cnc([N+](=O)[O-])c2NCc2ccc3c(-c4cccc(C(N)=S)c4)cn(C4CCOCC4)c3c2)cc1 | < 20 µM | –
CC1CC(n2cc(-c3cccc(C(N)=S)c3)c3ccc(CNc4nnc(N)s4)cc32)CCO1 (configuration not stated) | < 20 µM | –
COc1ccc(Cn2cnc(NCc3ccc4c(-c5cccc(C(N)=S)c5)cn(C5CCOCC5)c4c3)c2[N+](=O)[O-])cc1 | < 20 µM | –
CS(=O)(=O)Nc1ccc2c(-c3cccc(C(N)=S)c3)cn(C3CCC(F)(F)CC3)c2c1 | < 20 µM | –
NC(=S)c1cccc(-c2cn(CC(CF)CF)c3cc(NC(=O)CCc4nccs4)ccc23)c1 | < 20 µM | –
CC(C)S(=O)(=O)N1CCC(n2cc(-c3cccc(C(N)=S)c3)c3ccc(CNC(=O)C4CNC4)cc32)CC1 | < 20 µM | –
CN1CC(C(=O)NCc2ccc3c(-c4cccc(C(N)=S)c4)cn(C4CCN(S(=O)(=O)C(F)(F)F)CC4)c3c2Cl)C1 | < 20 µM | –
CS(=O)(=O)N1CCC(n2cc(-c3cccc(C(N)=S)c3)c3ccc(NC(=O)CCCCCNC(=O)CCCC[C@@H]4SC[C@@H]5NC(=O)N[C@@H]54)cc32)CC1 | < 20 µM | –
NC(=S)c1cccc(-c2cn(C3CCN(S(=O)(=O)C(F)(F)F)CC3)c3cc(NC(=O)CCOCCOCCOCCOCCOCCOCCNC(=O)CCCC[C@@H]4SC[C@@H]5NC(=O)N[C@@H]54)ccc23)c1 | < 20 µM | –
NC(=S)c1cccc(-c2cn(C3CCC(F)(F)CC3)c3cc(NC(=O)CCCCCNC(=O)c4ccc5c(c4)C(=O)OC54c5ccc(O)cc5Oc5cc(O)ccc54)ccc23)c1 | < 20 µM | –
CC(=O)Nc1ccc2c(-c3cccc(C(N)=S)c3)cn(C3CCN(S(=O)(=O)C(F)(F)F)CC3)c2c1 | < 20 µM | –
NC(=S)c1cccc(-c2cn(C3CCN(S(=O)(=O)C(F)(F)F)CC3)c3cc(CNC(=O)C4CNC4)ccc23)c1 | – | Activity [2]: Active
CC1CC(n2cc(-c3cccc(C(N)=S)c3)c3ccc(N)cc32)CCN1S(C)(=O)=O (configuration not stated) | < 20 µM | –
NC(=S)c1cccc(-c2cn(C3CCN(S(=O)(=O)CCCNC(=O)CCCC[C@@H]4SC[C@@H]5NC(=O)N[C@@H]54)CC3)c3cc(CNC(=O)c4c[nH]c5ccccc45)ccc23)c1 | < 20 µM | –
NC(=S)c1cccc(-c2cn(C3CCN(c4nccs4)CC3)c3cc(CNC(=O)c4c[nH]c5ncccc45)ccc23)c1 | < 20 µM | –
COCCN1CC(C(=O)NCc2ccc3c(-c4cccc(C(N)=S)c4)cn(C4CCN(S(C)(=O)=O)CC4)c3c2)C1 | < 20 µM | –
CC(C)S(=O)(=O)N1CCC(n2cc(-c3cccc(C(N)=S)c3)c3ccc(CNC(=O)C4CN(C)C4)cc32)CC1 | < 20 µM | –
CC(C)S(=O)(=O)N1CCC(n2cc(-c3cccc(C(N)=S)c3)c3ccc(CNc4nnc(N)s4)cc32)CC1 | – | GI50 [3]: 5 µM; GI50 [4]: 2.5 µM; GI50 [5]: 5.5 µM; GI50 [6]: 2 µM; GI50 [7]: > 50 µM

Structure (SMILES) | IC50 [1] | also measured
NC(=S)c1cccc(-c2cn(CC(CF)CF)c3cc(NC(=O)Cc4nccs4)ccc23)c1 | < 20 µM | –
COCCC(=O)Nc1ccc2c(-c3cccc(C(N)=S)c3)cn(CC(CF)CF)c2c1 | < 20 µM | –
CN(C)c1cccc2c(S(=O)(=O)NCCCCCCCCC(=O)Nc3ccc4c(-c5cccc(C(N)=S)c5)cn(C5CCC(F)(F)CC5)c4c3)cccc12 | < 20 µM | –
NC(=S)c1cccc(-c2cn(C3CCC(F)(F)CC3)c3c(Cl)c(N)ccc23)c1 | < 20 µM | –
CS(=O)(=O)N1CCC(n2cc(-c3cccc(C(N)=S)c3)c3ccc(NC(=O)CCCCCNC(=O)c4ccc5c(c4)C(=O)OC54c5ccc(O)cc5Oc5cc(O)ccc54)cc32)CC1 | < 20 µM | –
CS(=O)(=O)N1CCC(n2cc(-c3cccc(C(N)=S)c3)c3ccc(NC(=O)CCOCCOCCOCCOCCOCCOCCOCCOCCNC(=O)CCCC[C@@H]4SC[C@@H]5NC(=O)N[C@@H]54)cc32)CC1 | < 20 µM | –
NC(=S)c1cccc(-c2cn(C3CCN(S(=O)(=O)C(F)(F)F)CC3)c3cc(CNC(=O)[C@@H]4C[C@H](O)CN4)ccc23)c1 | < 20 µM | –
CC1CN(S(C)(=O)=O)CCC1n1cc(-c2cccc(C(N)=S)c2)c2ccc(N)cc21 (configuration not stated) | – | GI50 [3]: 2.5 µM; GI50 [5]: 2.7 µM; GI50 [7]: > 25 µM; GI50 [8]: > 50 µM; Activity [9]: Active
CCC(=O)Nc1ccc2c(-c3cccc(C(N)=S)c3)cn(CC(CF)CF)c2c1 | < 20 µM | –
CCCCCCN1CC(C(=O)NCc2ccc3c(-c4cccc(C(N)=S)c4)cn(C4CCN(S(C)(=O)=O)CC4)c3c2)C1 | < 20 µM | –
CC1CN(S(C)(=O)=O)CCC1n1cc(-c2cccc(C(N)=S)c2)c2ccc(CNC(=O)C3CN(C)C3)cc21 (configuration not stated) | < 20 µM | –
CCC(=O)Nc1ccc2c(-c3cccc(C(N)=S)c3)cn(C3CCN(S(=O)(=O)C(C)C)CC3)c2c1 | < 20 µM | –
CC(C)S(=O)(=O)N1CCC(n2cc(-c3cccc(C(N)=S)n3)c3ccc(CNc4nnc(N)s4)cc32)CC1 | < 20 µM | –
NC(=S)c1cccc(-c2cn(C3CCC(F)(F)CC3)c3cc(CNC(=O)C4CNC4)ccc23)c1 | < 20 µM | –
CCN1CC(C(=O)NCc2ccc3c(-c4cccc(C(N)=S)c4)cn(C4CCN(c5nccs5)CC4)c3c2)C1 | < 20 µM | –
CC(C)S(=O)(=O)N1CCC(n2cc(-c3cccc(C(N)=S)c3)c3ccc(N)cc32)CC1 | < 20 µM | –
CS(=O)(=O)N1CCC(n2cc(-c3cccc(C(N)=S)c3)c3ccc(NC(=O)CCOCCOCCOCCOCCNC(=O)CCCC[C@@H]4SC[C@@H]5NC(=O)N[C@@H]54)cc32)CC1 | < 20 µM | –
CS(=O)(=O)Nc1ccc2c(-c3cccc(C(N)=S)c3)cn(C3CCOCC3)c2c1 | < 20 µM | –
CCCOC1CCNC1C(=O)NCc1ccc2c(-c3cccc(C(N)=S)c3)cn(C3CCN(S(=O)(=O)C(C)C)CC3)c2c1 (configuration not stated) | < 20 µM | –
CC(C)S(=O)(=O)N1CCC(n2cc(-c3cccc(C(N)=S)c3)c3ccc(NC(=O)CCCC[C@@H]4SC[C@@H]5NC(=O)N[C@@H]54)cc32)CC1 | < 20 µM | –

Structure (SMILES) | IC50 [1] | also measured
COc1cccc2[nH]cc(-c3cccc(C(N)=S)c3)c12 | < 20 µM | –
CCCCCCN1CC(C(=O)NCc2ccc3c(-c4cccc(C(N)=S)c4)cn(C4CCN(S(=O)(=O)C(F)(F)F)CC4)c3c2)C1 | < 20 µM | –
NC(=S)c1cccc(-c2cn(C3CCN(S(=O)(=O)C(F)(F)F)CC3)c3cc(CNC(=O)[C@@H]4C[C@H](F)CN4)ccc23)c1 | < 20 µM | –
NC(=S)c1cccc(-c2cn(C3CCN(c4nccs4)CC3)c3cc(CNC(=O)C4CNC4)ccc23)c1 | < 20 µM | –
NC(=S)c1cccc(-c2cn(C3CCOCC3)c3cc(CNc4cc[nH]n4)ccc23)c1 | < 20 µM | –
NC(=S)c1cccc(-c2cn(C3CCN(S(=O)(=O)C(F)(F)F)CC3)c3cc(CNC(=O)NCC4CCN4)ccc23)c1 (configuration not stated) | < 20 µM | –
CC(C)S(=O)(=O)N1CCC(n2cc(-c3cccc(C(N)=S)c3)c3ccc(N4CCCC4=O)cc32)CC1 | < 20 µM | –
CS(=O)(=O)N1CCC(n2cc(-c3cccc(C(N)=S)c3)c3ccc(CNC(=O)Cc4c[nH]cn4)c(Cl)c32)CC1 | < 20 µM | –
Cc1cc(N2CCC(n3cc(-c4cccc(C(N)=S)c4)c4ccc(CNc5nnc(N)s5)cc43)CC2)n(C)n1 | < 20 µM | –
COCCC(=O)Nc1ccc2c(-c3cccc(C(N)=S)c3)cn(C3CCC(F)(F)CC3)c2c1 | < 20 µM | –
NC(=S)c1cccc(-c2cn(C3CCN(S(=O)(=O)C(F)(F)F)CC3)c3cc(CNc4nnc(N)s4)ccc23)c1 | < 20 µM | –
CCCOC1CNC(C(=O)NCc2ccc3c(-c4cccc(C(N)=S)c4)cn(C4CCN(S(=O)(=O)C(C)C)CC4)c3c2)C1 (configuration not stated) | < 20 µM | –
NC(=S)c1cccc(-c2cn(C3CCN(S(=O)(=O)C(F)(F)F)CC3)c3cc(CNC(=O)C4CNCCN4)ccc23)c1 (configuration not stated) | < 20 µM | –
CS(=O)(=O)N1CC2CCC1CC2n1cc(-c2cccc(C(N)=S)c2)c2ccc(N)cc21 (configuration not stated) | < 20 µM | –
CC(C)S(=O)(=O)N1CCC(n2cc(-c3cccc(C(N)=S)c3)c3ccc(CNC(=O)C4CCCN4)cc32)CC1 (configuration not stated) | < 20 µM | –
C[C@@H]1CN[C@H](C(=O)NCc2ccc3c(-c4cccc(C(N)=S)c4)cn(C4CCN(S(=O)(=O)C(F)(F)F)CC4)c3c2)C1 | < 20 µM | –
CC1CN(S(C)(=O)=O)CCC1n1cc(-c2cccc(C(N)=S)c2)c2ccc(CNc3nnc(N)s3)cc21 (configuration not stated) | < 20 µM | –
NC(=S)c1cccc(-c2cn(C3CCN(c4nccs4)CC3)c3cc(CNc4nnc(N)s4)ccc23)c1 | < 20 µM | –
CC(C)S(=O)(=O)N1CCC(n2cc(-c3cccc(C(N)=S)c3)c3ccc(CNC(=O)C4CCN4)cc32)CC1 (configuration not stated) | < 20 µM | –
